Target: E3 ubiquitin-protein ligase Mdm2 (Homo sapiens, UniProt Q00987)
Experiment: Inhibition of GST-tagged MDM2 binding to p53 by ELISA

E3 ubiquitin-protein ligase Mdm2, sequence (Q00987 whole entry): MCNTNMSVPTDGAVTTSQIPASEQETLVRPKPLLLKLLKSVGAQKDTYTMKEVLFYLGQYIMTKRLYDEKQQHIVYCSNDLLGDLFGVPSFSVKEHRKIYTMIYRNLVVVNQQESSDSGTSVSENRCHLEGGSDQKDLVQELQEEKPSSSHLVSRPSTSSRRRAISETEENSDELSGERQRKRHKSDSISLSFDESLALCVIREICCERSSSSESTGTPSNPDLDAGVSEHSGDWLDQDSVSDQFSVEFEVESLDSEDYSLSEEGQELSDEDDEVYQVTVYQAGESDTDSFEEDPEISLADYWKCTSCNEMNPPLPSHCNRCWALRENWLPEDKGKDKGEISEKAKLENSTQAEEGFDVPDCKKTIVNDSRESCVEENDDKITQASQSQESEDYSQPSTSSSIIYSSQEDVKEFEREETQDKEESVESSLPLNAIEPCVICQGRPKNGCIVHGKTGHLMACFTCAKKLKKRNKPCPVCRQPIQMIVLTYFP

Row | IC50 [nM] | Compound
1 | 260 | CC(C)C1=C(C(=O)N2CCNC(=O)C2)SC2=N[C@@H](c3ccc(Cl)cc3)[C@@H](c3ccc(Cl)cc3)N21 (racemic)
2 | 340 | CC(C)C1=C(C(=O)N2CCOCC2)SC2=N[C@@H](c3ccc(Cl)cc3)[C@@H](c3ccc(Cl)cc3)N21 (racemic)
3 | 1100 | CC(C)C1=C(C(=O)N2CCNC(=O)CC2)SC2=N[C@@H](c3ccc(Cl)cc3)[C@@H](c3ccc(Cl)cc3)N21 (racemic)
4 | 1200 | CC(C)C1=C(C(=O)N2CCN(C)CC2)SC2=N[C@@H](c3ccc(Cl)cc3)[C@@H](c3ccc(Cl)cc3)N21 (racemic)
5 | 140 | CC(C)C1=C(C(=O)N2C[C@@H](C)N[C@@H](C)C2)SC2=N[C@@H](c3ccc(Cl)cc3)[C@@H](c3ccc(Cl)cc3)N21 (racemic)
6 | 160 | CC(C)C1=C(C(=O)N2CCNC(=O)C2)SC2=NC(c3ccc(Cl)cc3)C(c3ccc(Cl)cc3)N21 (single isomer, unassigned; (+))
7 | 11900 | CC(C)C1=C(C(=O)N2CCNC(=O)C2)SC2=NC(c3ccc(Cl)cc3)C(c3ccc(Cl)cc3)N21 (single isomer, unassigned; (-))

Second part, the molecule before the results:

Row | Compound | IC50 [nM]
8 | COCC1=C(C(=O)N2CCNC(=O)C2)SC2=N[C@@H](c3ccc(Cl)cc3)[C@@H](c3ccc(Cl)cc3)N21 (racemic) | 7100
9 | CC1=C(C(=O)N2CCNC(=O)C2)SC2=N[C@@H](c3ccc(Cl)cc3)[C@@H](c3ccc(Cl)cc3)N21 (racemic) | 2700
10 | CCC1=C(C(=O)N2CCNC(=O)C2)SC2=N[C@@H](c3ccc(Cl)cc3)[C@@H](c3ccc(Cl)cc3)N21 (racemic) | 1800
11 | CCCC1=C(C(=O)N2CCNC(=O)C2)SC2=N[C@@H](c3ccc(Cl)cc3)[C@@H](c3ccc(Cl)cc3)N21 (racemic) | 3100
12 | O=C1CN(C(=O)C2=C(C3CC3)N3C(=N[C@@H](c4ccc(Cl)cc4)[C@H]3c3ccc(Cl)cc3)S2)CCN1 (racemic) | 9500
13 | CC(C)(C)C1=C(C(=O)N2CCNC(=O)C2)SC2=N[C@@H](c3ccc(Cl)cc3)[C@@H](c3ccc(Cl)cc3)N21 (racemic) | 3000
14 | CC(=O)N1CCN(C(=O)C2=C(C(C)C)N3C(=N[C@@H](c4ccc(Cl)cc4)[C@H]3c3ccc(Cl)cc3)S2)CC1 (racemic) | 840
15 | CC(C)C1=C(C(=O)N2CCC(C(=O)N(C)C)CC2)SC2=N[C@@H](c3ccc(Cl)cc3)[C@@H](c3ccc(Cl)cc3)N21 (racemic) | 4400
16 | CC(C)C1=C(C(=O)N2CCN(CCO)CC2)SC2=N[C@@H](c3ccc(Cl)cc3)[C@@H](c3ccc(Cl)cc3)N21 (racemic) | 1800
